The values that follow come from US20080221078A1, “Use of a CB1 Antagonist for Treating Side Effects and Negative Symptoms of Schizophrenia” (priority 2005, published 2008).

For one data set, the system named is Male Sprague Dawley rats. Briefly: Holeboard test (working memory performance). The data set is classed as in vivo, rat. From the text:
Similarly, a working memory performance in a rat hole board model has been used to measure various cognition deficits. The hole board task is a well-known and widely used assay to measure working and reference memory in rodents. This model utilizes a board with 8 holes, each baited with a food reward, thus taking advantage of the rodent's natural propensity to forage for food. In a modified version, it has now been able to assess improvements in working memory performance without the use of amnestic agents. Male Sprague Dawley rats are allowed to find and consume 4 of the 8 rewards and then removed to the home cage for 2 minutes. They are then returned and allowed to find and consume the remaining 4 rewards. Any returns to holes already visited are considered working memory errors.
Animals: Male Sprague Dawley rats (Charles River) were housed on a 12 hour light/dark cycle, with lights on at 06:00. Rats were maintained at 80% of their normal body weight, with average starting weights at 200-220 grams. Rats were acclimated to the testing chamber (Med-Associates, Inc. hole board in a ventilated, sound-attenuating cubicle) for four 10-minute trials over a two-day period 24 hours prior to drug treatments. The testing chamber contains eight holes, each of which is baited with a food reward (cocoa puff). Procedure: Each experiment was carried over two-three days, with a 3 day (experiment 1), 4 day (experiment 2), and 3 day (experiment 3) washout in between. Thirty two animals were used for each experiment, with each animal pseudo-randomly assigned to treatment groups such that each animal received two of the four-five treatments, with an even distribution of all possible treatment-treatment combinations. There were a total of 16 animals per treatment group. On test days, rats were injected intraperitoneally (i.p.) with N-{1-[bis(4-chlorophenyl)methyl]azetidin-3-yl}-N-(3,5-difluorophenyl)methylsulfonamide (Example 2) (Exp 1: 0.3, 1, or 3 mg/kg; Exp 2: 1, 3 or 10 mg/kg) or vehicle (distilled water with 1% tween). For Exp 3, rats were injected i.p. with risperidone followed by Example 2 (Exp 3: 0.010, 0.10, or 1.0 mg/kg with 3 mg/kg Example 2) or vehicle (0.9% NaCl with 1% tween). The rats were then placed in the test chamber 60 minutes later. After consuming 4 food rewards, the rats were removed from the chamber for 2 minutes and returned to their home cage. They were then returned to the chamber and allowed to retrieve and finish the remaining four rewards, or for a total of 10 minutes. […] The number of visits to holes that they have already visited were noted. Drugs: Doses of Example 2 were 0.3, 1 and 3 mg/kg (experiment 1) and 1, 3 and 10 mg/kg (experiment 2). Example 2 was put into suspension with distilled water (exp 1 & 2) or 0.9% NaCl (exp 3), with the addition of tween 80. Doses of risperidone (antipsychotic, Sigma) were 0.010, 0.10, and 1.0 mg/kg (experiment 3). risperidone was solubilized in 0.9% NaCl with the addition of 1% tween 80,

The next data set deals with Male CD-1 mice. Briefly: PCP-induced locomotion. The data set is classed as in vivo, mouse. As to the method: (§1) Animals: Male CD-1 mice (Charles River Laboratories) weighing 20-30 g were used. Male Sprague-Dawley rats (Charles River Laboratories) weighing 250-433 g were used. […] Procedure: A standard automated locomotion assay was employed (see, for example: R. Christopher Pierce and Peter Kalivas. (1997) Locomotor Behavior. In: Current Protocols in Neuroscience, Volume 3, 8.1.1-8.1.8. G. P. Taylor, Editor. New York: John Wiley & Sons, Inc.). Horizontal activity was measured by beam breaks of photocells lining the chamber exterior to the activity boxes. The activity was measured for 60 min during spontaneous locomotion or 90 min for the PCP or amphetamine-induced assays. Example 2 was administered per os (po) with a 1 hr pre-treatment. […] PCP or amphetamine was administered ip or subcutaneous (sc), respectively, with no pre-treatment. When pre-treatment time elapsed for each rodent, the activity cage was transferred from its holding rack and placed into its own locomotion chamber. Independent start time is possible with the recording of activity commencing almost immediately. The computer automatically times out each chamber individually when the session has ended. Drugs: Doses of Example 2 for mice were 0.3, 1, 3, and 10 mg/kg, p.o. The lowest dose was not tested in spontaneous locomotion for rats. The three highest doses of Example 2 were tested against PCP-induced and amphetamine-induced locomotion in mice and rats, respectively. The conventional antipsychotic haloperidol was used in co-administration with Example 2 (1, 3, and 10 mg/kg) at the doses of 0.1 and 0.2 mg/kg in mice to reverse PCP-induced locomotion. Haloperidol was co-administered at the dose of 0.3 mg/kg in rats to reverse amphetamine-induced locomotion.
(§2) Phencyclidine and amphetamine were dissolved in distilled water.

In data set [1] the test system is Male Sprague-Dawley rats. Briefly: Amphetamine-induced locomotion. The data set is classed as in vivo, rat. The method, then:
as §1, §2

In the next data set the test system is rats. Briefly: MK-801-induced persistent latent inhibition (conditioned emotional response procedure). The data set is classed as in vivo, rat. From the text:
When the bottle was not present, the hole was covered by a metal lid. Licks were detected by a Campden Instruments drinkometer. The preexposed to-be-conditioned stimulus was a 10 sec, 80 dB, 2.8 kHz tone produced by a Sonalert module. Shock was supplied through the floor by a Campden Instruments shock generator and shock scrambler set at 0.5 mA and 1 sec duration. Equipment programming and data recording were computer controlled.
Water in the test apparatus was given in addition to the daily ration of 1 h given in the home cages.
Shock immediately followed tone termination. The first tone-shock pairing was given 5 min after the start of the session. After the last pairing, rats were left in the experimental chamber for an additional 5 min.
When the rat completed 75 licks the tone was presented for 5 min. The following times were recorded: Time to first lick, time to complete licks 1-50, time to complete licks 51-75 (before tone onset) and time to complete licks 76-100 (after tone onset). Times to complete licks 76-100 were logarithmically transformed to allow parametric analysis of variance. Longer log times indicate stronger suppression of drinking.

The test system of data set [2] is Male Sprague-Dawley rats. Briefly: Antipsychotic induced catalepsy (bar test). Conditions: for olanzapine-induced catalepsy: olanzapine 10 mg/kg ip.
Experimental: (§3) Animals: Male Sprague-Dawley rats (Charles River Laboratories) weighing 267-457 g were used. The animals were housed under standard laboratory conditions as outlined in the NIH Guide for Care and Use of Laboratory Animals. They were maintained on a 12:12 light/dark cycle with tap water and Lab Diet rodent chow ad libitum. Rats were acclimatized to the experimental room for 60 min prior to injections. Procedure: The test for catalepsy consists of placing an individual animal in a white translucent plastic box (26×20×15 cm) with a wooden dowel mounted horizontally 10 cm from the floor and 4 cm from one end of the box. The floor is covered with approximately 1 cm of bedding material. Test animals are transferred from the vivarium in their home cages to the experimental room and are allowed to acclimatize for 60 mins. Five animals are kept in a cage. The animals are transferred into another cage after treatment. […] 30 mins after the second treatment, animals were placed individually in the white translucent plastic boxes and tested for catalepsy following a one minute acclimatization period. A group of five animals are tested at a time. Each treatment group consists of 10 animals.
(§4) At the end of the one minute acclimation period, each animal is gently grasped around the shoulders and under the forepaws, and gently placed on the wooden dowel. The amount of time each rat spends with at least one forepaw on the bar determined for a maximum period of 180 seconds. This is repeated three times.
(§5) Haloperidol was used at the dose of 1 mg/kg.
(§6) Haloperidol was dissolved in distilled water via dilution of a 5 mg/ml stock solution in distilled water. Olanzapine was dissolved in three drops of HCl prior to the addition of distilled water to full volume.
In data set [3] the test system is Female Wistar rats on high fat diet. The data set can be described thus: Antipsychotic (olanzapine) induced weight gain.
Text: Animals: Female Wistar rats on high fat diet were used in this Example.
A short description of data set [4]: Antipsychotic induced catalepsy (bar test). The note with it: male, Sprague-Dawley, rat, in vivo, intraperitoneal.
Experimental: as §3, §4, §5, §6

“N-{1-[Bis(4-chlorophenyl)methyl]azetidin-3-yl}-N-(3,5-difluorophenyl)methylsulfonamide [Example 2]”: the “number of working memory errors compared to vehicle treated animals” value is recorded as “but not the 0.3 or 1 mg/kg doses” in the data set with Male Sprague Dawley rats (Experiment 1, 0.3 mg/kg i.p., after 2 minute delay); “but not the 0.3 or 1 mg/kg doses” in the data set with Male Sprague Dawley rats (Experiment 1, 1 mg/kg i.p., after 2 minute delay); “significant decrease” in the data set on Male Sprague Dawley rats (Experiment 1, 3 mg/kg i.p., after 2 minute delay, p<0.05); “significant decrease” with Male Sprague Dawley rats (Experiment 2, 3 mg/kg i.p., after 2 minute delay, p<0.05); “significant decrease” with Male Sprague Dawley rats (Experiment 2, 10 mg/kg i.p., after 2 minute delay, p<0.05); “significant decrease” in the data set on Male Sprague Dawley rats (Experiment 3, 3 mg/kg Example 2 in combination with 0.10 mg/kg risperidone i.p., p<0.05). For the same compound, in the data set on Male Sprague Dawley rats (Experiment 3, 3 mg/kg i.p. Example 2 alone, p<0.05), the “number of working memory errors compared to vehicle treated animals” value is given as “significant decrease”. Also, the “minimum effective dose for improvement in working memory performance” value in the data set on Male Sprague Dawley rats (i.p.) was determined as 3 mg/kg. In addition, in the data set on Male CD-1 mice (Example 2 alone 1, 3, and 10 mg/kg p.o.), the “reversal of locomotor hyperactivity induced by PCP” value was “no significant reversal”. Also, the “effect of co-treatment with haloperidol on PCP-induced locomotion” value in the data set with Male CD-1 mice (haloperidol 0.1 and 0.2 mg/kg ip with Example 2 1, 3, 10 mg/kg p.o.) is listed as “yielded the same effects whether or not Example 2 was present or absent”. In addition, the “effect of co-treatment with olanzapine on PCP-induced locomotion” value with Male CD-1 mice (olanzapine 0.03 and 0.3 mg/kg ip with Example 2 1, 3, 10 mg/kg p.o.) is “yielded the same effects whether or not Example 2 was present or absent”. Also, in the data set on Male Sprague-Dawley rats [1] (rats, Example 2 alone 1, 3, and 10 mg/kg p.o.), the “reversal of locomotor hyperactivity induced by d-AMPH” value is listed as “no significant reversal”. Besides, the “effect of co-treatment with haloperidol on amphetamine-induced locomotion” value in the data set on Male Sprague-Dawley rats [1] (rats, haloperidol 0.3 mg/kg ip with Example 2) is “yielded the same effects whether or not Example 2 was present or absent”. Besides, in the data set with Male Sprague-Dawley rats [1] (rats, olanzapine 1 and 3 mg/kg ip with Example 2), the “effect of co-treatment with olanzapine on amphetamine-induced locomotion” value is given as “yielded the same effects whether or not Example 2 was present or absent”. The “MK801-induced persistent latent inhibition” value with rats (1, 3 and 10 mg/kg i.p., 60 minutes prior to pre-exposure and conditioning) is “reversed”. Besides, the olanzapine-induced catalepsy result in the data set with Male Sprague-Dawley rats [2] (Example 2 3 mg/kg orally) and in the data set with Male Sprague-Dawley rats [2] (Example 2 10 mg/kg orally) was “significantly reversed” in each case. In the data set with Male Sprague-Dawley rats [2] (Example 2 10 mg/kg orally, haloperidol 1 mg/kg ip), the haloperidol-induced catalepsy entry is reported as “significantly reversed”. In addition, the “weight gain vs. saline controls” value in data set [3] (10 mg/kg Example 2 i.p. with olanzapine 3 mg/kg i.p.) was “not significant from saline controls”. Besides, the weight vs. saline result in data set [3] (Example 2 alone 10 mg/kg i.p.) is recorded as “no significant effect”. The “weight gain elicited by olanzapine” value in data set [3] (co-administration of Example 2 1, 3, and 10 mg/kg i.p. with olanzapine 3 mg/kg i.p.) is reported as “dose dependent attenuation”.

On to `NCC(=O)O` [glycine, Glycine], for which the “MK-801-induced abnormally persistent LI” value in the data set on rats (glycine 0.8 g/kg i.p., 30 minutes prior to conditioning) is “reversed”.

In the case of `O=C(CCCN1CCC(O)(c2ccc(Cl)cc2)CC1)c1ccc(F)cc1` [haloperidol, reference compound], the “reversal of locomotor hyperactivity” value in the data set with Male Sprague-Dawley rats [1] (haloperidol 0.3 mg/kg ip) is on record as “highly significant reversal”. Moreover, in data set [4], the ED50 at 30 min was 0.64 mg/kg. Also, the “induction of catalepsy compared to vehicle treated animals” value in the data set with Male Sprague-Dawley rats [2] (haloperidol 1 and 3 mg/kg) was “significantly induces catalepsy”.

Consider `C[C@]12N[C@H](Cc3ccccc31)c1ccccc12` [MK-801, dizocilpine], for which, in the data set with rats (MK-801 0.05 mg/kg i.p., 30 minutes before conditioning), the “latent inhibition (LI) with 40 preexposures and 5 conditioning trials” value is “showed LI in spite of extended conditioning”.
